Patent publication US20100240093A1, “Isolated Staphylococcus Pseudolugdunensis” (priority 2006, published 2010)

Assays:
isolate B006 = assay: Disc diffusion antimicrobial susceptibility testing; type: cell-based, Staphylococcus pseudolugdunensis; further: key: R—resistant; S—susceptible
Protocol: (§1) In vitro antimicrobial susceptibility testing for amoxicillin-clavulanate, cefazolin, clindamycin, erythromycin, gentamicin, levofloxacin, minocycline, penicillin, rifampin, trimethoprim/sulfamethoxazole (SXT) and vancomycin was determined by a disc diffusion method in accordance with Clinical and Laboratory Standards Institute guidelines (CLSI Performance standards for antimicrobial disk susceptibility tests; Approved standard, 9th ed. (2006) Clinical and Laboratory Standards Institute, Wayne, Pa.).

isolate B060 = assay: as above; type: cell-based, Staphylococcus pseudolugdunensis; further: key: R—resistant; S—susceptible
Protocol: as §1

isolate B230 = assay: as above; type: cell-based, Staphylococcus pseudolugdunensis; further: key: R—resistant; S—susceptible
Protocol: as §1

isolate B277 = assay: as above; type: cell-based, Staphylococcus pseudolugdunensis; settings: isolate 8277; further: key: R—resistant; S—susceptible
Protocol: as §1

isolate B287 = assay: as above; type: cell-based, Staphylococcus pseudolugdunensis; settings: isolate 8287; further: key: R—resistant; S—susceptible
Protocol: as §1

isolate B292 = assay: as above; type: cell-based, Staphylococcus pseudolugdunensis; settings: isolate 13292; further: key: R—resistant; S—susceptible
Protocol: as §1

isolate B333 = assay: as above; type: cell-based, Staphylococcus pseudolugdunensis; further: key: R—resistant; S—susceptible
Protocol: as §1

isolate B334 = assay: as above; type: cell-based, Staphylococcus pseudolugdunensis; further: key: R—resistant; S—susceptible
Protocol: as §1

isolate B354 = assay: as above; type: cell-based, Staphylococcus pseudolugdunensis; further: key: R—resistant; S—susceptible
Protocol: as §1

isolate B715 = assay: as above; type: cell-based, Staphylococcus pseudolugdunensis; settings: isolate 13715; further: key: R—resistant; S—susceptible
Protocol: as §1

isolate B739 = assay: as above; type: cell-based, Staphylococcus pseudolugdunensis; settings: isolate 8739; further: key: R—resistant; S—susceptible
Protocol: as §1

isolate B837 = assay: as above; type: cell-based, Staphylococcus pseudolugdunensis; further: key: R—resistant; S—susceptible
Protocol: as §1

12 isolates = assay: Disc diffusion antimicrobial susceptibility testing, all isolates; type: cell-based, Staphylococcus pseudolugdunensis
Protocol: as §1

isolates B230 and B333 = assay: Clinical case of intravenous line-associated infection; type: in vivo, human; settings: patient with intravenous line-associated infection, line removed
Protocol: The relatedness of these 12 ODC/PYR-positive CoNS was further analyzed by pulsed field gel electrophoresis (PFGE). All isolates were unrelated, except for two isolates (B230 and B333) which were recovered from the same patient over a 16-day interval. […] Vancomycin was administered and the line removed.
Medical records of the 11 patients from whom these isolates were recovered were reviewed and the demographic and clinical information are listed in Table 3. Two isolates (B230 and B333), which were recovered from the same patient over a 16-day interval, were considered to be the pathogen that caused an intravenous line-associated infection. The remaining 10 isolates were considered to be contaminants. Antibiotics, including vancomycin, were administered in 6 (54.5%) cases, including one case in which the two isolates were considered pathogens and in 5 of 10 cases in which the isolates were considered contaminants (Table 3).

For Amoxicillin-clavulanate, the Antimicrobial susceptibility (isolate B006) was “R”, the Antimicrobial susceptibility (isolate B060) was “S” and the Antimicrobial susceptibility (isolate B230) was “S”. The Antimicrobial susceptibility (isolate B277) was “S”, the Antimicrobial susceptibility (isolate B287) was “S” and the Antimicrobial susceptibility (isolate B292) was “S”. For the same molecule, the Antimicrobial susceptibility (isolate B333) was “S”, the Antimicrobial susceptibility (isolate B334) was “R” and the Antimicrobial susceptibility (isolate B354) was “S”. For the same molecule, the Antimicrobial susceptibility (isolate B715) was “R”, the Antimicrobial susceptibility (isolate B739) was “R” and the Antimicrobial susceptibility (isolate B837) was “R”.
With CC[C@H]1OC(=O)[C@H](C)[C@@H](O[C@H]2C[C@@](C)(OC)[C@@H](O)[C@H](C)O2)[C@H](C)[C@@H](O[C@@H]2O[C@H](C)C[C@H](N(C)C)[C@H]2O)[C@](C)(O)C[C@@H](C)C(=O)[C@H](C)[C@@H](O)[C@]1(C)O [Erythromycin] the Antimicrobial susceptibility (isolate B006) was “R”, the Antimicrobial susceptibility (isolate B060) was “S” and the Antimicrobial susceptibility (isolate B230) was “S”. The Antimicrobial susceptibility (isolate B277) was “S”, the Antimicrobial susceptibility (isolate B287) was “S” and the Antimicrobial susceptibility (isolate B292) was “S”. For the same molecule, the Antimicrobial susceptibility (isolate B333) was “R”, the Antimicrobial susceptibility (isolate B334) was “R” and the Antimicrobial susceptibility (isolate B354) was “S”. For the same molecule, the Antimicrobial susceptibility (isolate B715) was “S”, the Antimicrobial susceptibility (isolate B739) was “R” and the Antimicrobial susceptibility (isolate B837) was “R”.
With Cc1nnc(SCC2=C(C(=O)O)N3C(=O)[C@@H](NC(=O)Cn4cnnn4)[C@H]3SC2)s1 [Cefazolin] the Antimicrobial susceptibility (isolate B006) was “R”, the Antimicrobial susceptibility (isolate B060) was “S” and the Antimicrobial susceptibility (isolate B230) was “S”. The Antimicrobial susceptibility (isolate B277) was “S”, the Antimicrobial susceptibility (isolate B287) was “S” and the Antimicrobial susceptibility (isolate B292) was “S”. The Antimicrobial susceptibility (isolate B333) was “S”, the Antimicrobial susceptibility (isolate B334) was “R” and the Antimicrobial susceptibility (isolate B354) was “S”. For the same molecule, the Antimicrobial susceptibility (isolate B715) was “R”, the Antimicrobial susceptibility (isolate B739) was “R” and the Antimicrobial susceptibility (isolate B837) was “R”.
In the case of CN(C)c1ccc(O)c2c1C[C@H]1C[C@H]3[C@H](N(C)C)C(O)=C(C(N)=O)C(=O)[C@@]3(O)C(O)=C1C2=O [Minocycline], the Antimicrobial susceptibility (isolate B006) is reported as “S”, the Antimicrobial susceptibility (isolate B060) is reported as “S” and the Antimicrobial susceptibility (isolate B230) is reported as “S”. For the same molecule, the Antimicrobial susceptibility (isolate B277) was “S”, the Antimicrobial susceptibility (isolate B287) was “S” and the Antimicrobial susceptibility (isolate B292) was “S”. For the same molecule, the Antimicrobial susceptibility (isolate B333) was “S”, the Antimicrobial susceptibility (isolate B334) was “S” and the Antimicrobial susceptibility (isolate B354) was “S”. The Antimicrobial susceptibility (isolate B715) was “S”, the Antimicrobial susceptibility (isolate B739) was “S” and the Antimicrobial susceptibility (isolate B837) was “S”.
In the case of CO[C@H]1/C=C/O[C@@]2(C)Oc3c(C)c(O)c4c(O)c(c(/C=N/N5CCN(C)CC5)c(O)c4c3C2=O)NC(=O)/C(C)=C\C=C\[C@H](C)[C@H](O)[C@@H](C)[C@@H](O)[C@@H](C)[C@H](OC(C)=O)[C@@H]1C [Rifampin], the Antimicrobial susceptibility (isolate B006) is reported as “S”, the Antimicrobial susceptibility (isolate B060) is reported as “S” and the Antimicrobial susceptibility (isolate B230) is reported as “S”. For the same molecule, the Antimicrobial susceptibility (isolate B277) was “S”, the Antimicrobial susceptibility (isolate B287) was “S” and the Antimicrobial susceptibility (isolate B292) was “S”. The Antimicrobial susceptibility (isolate B333) was “S”, the Antimicrobial susceptibility (isolate B334) was “S” and the Antimicrobial susceptibility (isolate B354) was “S”. The Antimicrobial susceptibility (isolate B715) was “S”, the Antimicrobial susceptibility (isolate B739) was “S” and the Antimicrobial susceptibility (isolate B837) was “S”. The “Susceptibility of all 12 isolates” value (12 isolates) was “susceptible”.
In the case of C[C@H]1COc2c(N3CCN(C)CC3)c(F)cc3c(=O)c(C(=O)O)cn1c23 [Levofloxacin], the Antimicrobial susceptibility (isolate B006) is reported as “S”, the Antimicrobial susceptibility (isolate B060) is reported as “S” and the Antimicrobial susceptibility (isolate B230) is reported as “R”. For the same molecule, the Antimicrobial susceptibility (isolate B277) was “S”, the Antimicrobial susceptibility (isolate B287) was “R” and the Antimicrobial susceptibility (isolate B292) was “S”. The Antimicrobial susceptibility (isolate B333) was “S”, the Antimicrobial susceptibility (isolate B334) was “R” and the Antimicrobial susceptibility (isolate B354) was “S”. For the same molecule, the Antimicrobial susceptibility (isolate B715) was “R”, the Antimicrobial susceptibility (isolate B739) was “S” and the Antimicrobial susceptibility (isolate B837) was “S”.
In the case of Gentamicin, the Antimicrobial susceptibility (isolate B006) is reported as “S”, the Antimicrobial susceptibility (isolate B060) is reported as “S” and the Antimicrobial susceptibility (isolate B230) is reported as “S”. For the same molecule, the Antimicrobial susceptibility (isolate B277) was “S”, the Antimicrobial susceptibility (isolate B287) was “S” and the Antimicrobial susceptibility (isolate B292) was “S”. The Antimicrobial susceptibility (isolate B333) was “S”, the Antimicrobial susceptibility (isolate B334) was “S” and the Antimicrobial susceptibility (isolate B354) was “S”. For the same molecule, the Antimicrobial susceptibility (isolate B715) was “S”, the Antimicrobial susceptibility (isolate B739) was “S” and the Antimicrobial susceptibility (isolate B837) was “S”. For the same molecule, the “Susceptibility of all 12 isolates” value (12 isolates) was “susceptible”.
With CN[C@H](CC(C)C)C(=O)N[C@H]1C(=O)N[C@@H](CC(N)=O)C(=O)N[C@H]2C(=O)N[C@H]3C(=O)N[C@H](C(=O)N[C@H](C(=O)O)c4cc(O)cc(O)c4-c4cc3ccc4O)[C@H](O)c3ccc(c(Cl)c3)Oc3cc2cc(c3O[C@@H]2O[C@H](CO)[C@@H](O)[C@H](O)[C@H]2O[C@H]2C[C@](C)(N)[C@H](O)[C@H](C)O2)Oc2ccc(cc2Cl)[C@H]1O [Vancomycin] the Antimicrobial susceptibility (isolate B006) was “S”, the Antimicrobial susceptibility (isolate B060) was “S” and the Antimicrobial susceptibility (isolate B230) was “S”. The Antimicrobial susceptibility (isolate B277) was “S”, the Antimicrobial susceptibility (isolate B287) was “S” and the Antimicrobial susceptibility (isolate B292) was “S”. For the same molecule, the Antimicrobial susceptibility (isolate B333) was “S”, the Antimicrobial susceptibility (isolate B334) was “S” and the Antimicrobial susceptibility (isolate B354) was “S”. The Antimicrobial susceptibility (isolate B715) was “S”, the Antimicrobial susceptibility (isolate B739) was “S” and the Antimicrobial susceptibility (isolate B837) was “S”. For the same molecule, the “Susceptibility of all 12 isolates” value (12 isolates) was “susceptible” and the Patient outcome (isolates B230 and B333) was “recovered fully”.
For Trimethoprim/sulfamethoxazole, the Antimicrobial susceptibility (isolate B006) was “S”, the Antimicrobial susceptibility (isolate B060) was “R” and the Antimicrobial susceptibility (isolate B230) was “R”. For the same molecule, the Antimicrobial susceptibility (isolate B277) was “S”, the Antimicrobial susceptibility (isolate B287) was “R” and the Antimicrobial susceptibility (isolate B292) was “S”. For the same molecule, the Antimicrobial susceptibility (isolate B333) was “S”, the Antimicrobial susceptibility (isolate B334) was “R” and the Antimicrobial susceptibility (isolate B354) was “S”. For the same molecule, the Antimicrobial susceptibility (isolate B715) was “R”, the Antimicrobial susceptibility (isolate B739) was “S” and the Antimicrobial susceptibility (isolate B837) was “S”.
In the case of Penicillin, the Antimicrobial susceptibility (isolate B006) is reported as “R”, the Antimicrobial susceptibility (isolate B060) is reported as “R” and the Antimicrobial susceptibility (isolate B230) is reported as “R”. For the same molecule, the Antimicrobial susceptibility (isolate B277) was “S”, the Antimicrobial susceptibility (isolate B287) was “R” and the Antimicrobial susceptibility (isolate B292) was “R”. The Antimicrobial susceptibility (isolate B333) was “R”, the Antimicrobial susceptibility (isolate B334) was “R” and the Antimicrobial susceptibility (isolate B354) was “S”. The Antimicrobial susceptibility (isolate B715) was “R”, the Antimicrobial susceptibility (isolate B739) was “R” and the Antimicrobial susceptibility (isolate B837) was “R”.
For COc1cccc(OC)c1C(=O)N[C@@H]1C(=O)N2[C@@H]1SC(C)(C)[C@@H]2C(=O)O [Methicillin], the Antimicrobial susceptibility (isolate B006) was “R”, the Antimicrobial susceptibility (isolate B060) was “S” and the Antimicrobial susceptibility (isolate B230) was “S”. For the same molecule, the Antimicrobial susceptibility (isolate B277) was “S”, the Antimicrobial susceptibility (isolate B287) was “S” and the Antimicrobial susceptibility (isolate B292) was “S”. The Antimicrobial susceptibility (isolate B333) was “S”, the Antimicrobial susceptibility (isolate B334) was “R” and the Antimicrobial susceptibility (isolate B354) was “S”. The Antimicrobial susceptibility (isolate B715) was “R”, the Antimicrobial susceptibility (isolate B739) was “R” and the Antimicrobial susceptibility (isolate B837) was “R”.
With CCC[C@@H]1C[C@@H](C(=O)N[C@@H]([C@H]2O[C@H](SC)[C@H](O)[C@@H](O)[C@H]2O)[C@H](C)Cl)N(C)C1 [Clindamycin] the Antimicrobial susceptibility (isolate B006) was “S”, the Antimicrobial susceptibility (isolate B060) was “S” and the Antimicrobial susceptibility (isolate B230) was “S”. For the same molecule, the Antimicrobial susceptibility (isolate B277) was “S”, the Antimicrobial susceptibility (isolate B287) was “S” and the Antimicrobial susceptibility (isolate B292) was “S”. For the same molecule, the Antimicrobial susceptibility (isolate B333) was “R”, the Antimicrobial susceptibility (isolate B334) was “R” and the Antimicrobial susceptibility (isolate B354) was “S”. The Antimicrobial susceptibility (isolate B715) was “S”, the Antimicrobial susceptibility (isolate B739) was “R” and the Antimicrobial susceptibility (isolate B837) was “R”.
